Measured values reported in patent US9540323B2 (BRISTOL-MYERS SQUIBB COMPANY, priority 2012, dated 2017).

How the values were obtained:
[1] = biological target: cloned human P2Y1 receptors (Homo sapiens (Human), UniProt P47900); assay: Binding Assay A - membrane binding assay, [33P] 2MeS-ADP (WGA FlashPlate); details: values marked * in Table 1; 0.5 nM [33P] 2MeS-ADP, Cheng-Prusoff; read-out: P2Y1 Ki (nM) using binding assay A
Source text: A membrane binding assay was used to identify inhibitors of [^33P] […] The cDNA clone for human P2Y1 was obtained from Incyte Pharmaceuticals and its sequence confirmed by established techniques (for a compendium of techniques used see Ausubel, F. et al., Current Protocols in Molecular Biology, John Wiley and Sons, NY, NY (1995)). The essential coding sequences were subcloned into pCDNA 3.1 (Invitrogen) to produce a P2Y1 expression construct. This construct was then transfected into the human embryonic kidney cell line HEK-293 and stable transfectants selected in GENETICIN® (G418 sulfate; Life Technologies). […] Membranes were prepared by growing HEK293 #49 in 150 mm dishes in DMEM/10% FBS in the presence of 1 mg/ml G418 until cells were 80-90% confluent. Plates were then washed with cold (4° C.) D-PBS twice and cells harvested by scraping into 10 mL D-PBS. Cells were pelleted by centrifugation (1,000 g, 10 min, 4° C.) and the resulting pellet resuspended in Lysis Buffer (10 mM Tris (7.4), 5 mM MgCl2 containing Complete protease inhibitor cocktail (Roche Cat #1873580) as recommended by the manufacturer). The suspension was then homogenized in a Dounce homogenizer (10-15 strokes; B pestle, on ice) and the homogenate spun at 1,000 g, 4° C., 5 min to pellet large debris. The supernatant was centrifuged at 150,000 g, 4° C., for 1 hour and the resulting membrane pellet resuspended in 0.5-1 mL of Buffer B (15 mM HEPES (7.4), 145 mM NaCl, 0.1 mM MgCl2, 5 mM EDTA, 5 mM KCl) and stored at −70° C. until used.
Binding reactions were performed in WGA FLASHPLATE®s (PerkinElmer Life Sciences, Cat # SMP105A) in a volume of 200 μL containing ˜45 fmol of P2Y1 receptor (5 μg of total protein), 0.5 nM [^33P] […] Reactions were allowed to proceed to completion at room temperature for 1 hour and then the aqueous solution aspirated. Plates were sealed and the residual [^33P] bound to the plate determined by scintillation counting.

[2] = tested on: human platelet rich plasma (PRP); assay: ADP induced platelet aggregation assay; details: Homo sapiens, Platelet, 5 min, read-out: PA IC50 (μM) @ 10 μM ADP, human PRP, 10 μM ADP, AUC at 5 minute

cloned human P2Y1 receptors, sequence (P47900 whole entry): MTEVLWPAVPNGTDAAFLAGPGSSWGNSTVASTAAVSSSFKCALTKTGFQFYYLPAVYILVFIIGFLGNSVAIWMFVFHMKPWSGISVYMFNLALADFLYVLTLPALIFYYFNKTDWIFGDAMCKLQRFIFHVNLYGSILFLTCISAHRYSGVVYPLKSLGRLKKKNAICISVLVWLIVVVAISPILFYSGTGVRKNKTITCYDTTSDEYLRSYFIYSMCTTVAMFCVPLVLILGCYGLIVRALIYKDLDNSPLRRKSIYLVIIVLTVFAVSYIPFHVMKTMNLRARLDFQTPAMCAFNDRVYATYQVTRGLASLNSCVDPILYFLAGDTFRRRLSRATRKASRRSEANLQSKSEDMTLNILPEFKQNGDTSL

| SMILES | Ki [1] [nM] | IC50 [2] [µM] |
| --- | --- | --- |
| CC1(C)CN(c2ccccc2NC(=O)Nc2nc3ccc(Cl)nc3s2)c2c(O)ccc(-c3nc4ccc(F)cc4s3)c21 [Example 176, 1-(5-Chlorothiazolo[5,4-b]pyridin-2-yl)-3-(2-(4-(6-fluorobenzo[d]thiazol-2-yl)-7-hydroxy-3,3-dimethylindolin-1-yl)phenyl)urea] | 13 | 0.35 |
| CC1(C)CN(c2ccccc2NC(=O)Nc2csc(C(F)(F)F)n2)c2c(O)cc(F)c(-c3ccc(C(F)(F)F)cc3)c21 [Example 217, 1-(2-(5-Fluoro-7-hydroxy-3,3-dimethyl-4-(4-(trifluoromethyl)phenyl)indolin-1-yl)phenyl)-3-(2-(trifluoromethyl)thiazol-4-yl)urea] | 8 | 0.16 |
| CC1(C)CN(c2ccccc2NC(=O)Nc2csc(C(F)(F)F)n2)c2c(O)cc(F)c(-c3ccc(Cl)cc3)c21 [Example 218, 1-(2-(4-(4-Chlorophenyl)-5-fluoro-7-hydroxy-3,3-dimethylindolin-1-yl)phenyl)-3-(2-(trifluoromethyl)thiazol-4-yl)urea] | 9.3 | 0.37 |
